Results from patent US7371741B2, “Estradiol derivatives and pharmaceutical compositions using same” (EntreMed, Inc., priority 2003, dated 2008).

Tests used:
[1] = tested on: MDA-MB-231: breast cancer; test: In vitro anti-proliferative activity, BrdU incorporation, MDA-MB-231; format: cell-based; conditions: MDA-MB-231 cells, 50% inhibition of proliferation, BrdU incorporation into DNA
Description: (§1) Determination of in vitro anti-proliferative activity of substituted estradiol analogs: In vitro anti-proliferative or anti-mitogenic activity was determined using a commercially available cell-based assay in 96-well tissue culture plates with assessment of proliferation by evaluating DNA synthesis through incorporation into DNA of immuno-reactive (BrdU) nucleotides. The cell types used are commercially available (MDA-MB-231: breast cancer; U87-MG: glioblastoma; PC3: prostate cancer; HUVEC: non-transformed early passage human umbilical vein endothelial cells). These assays, and the many assay variations possible to determine in vitro anti-proliferative or anti-mitogenic activity, are well known to those skilled in the art. The concentration which causes 50% inhibition of proliferation (IC50) was estimated from a dose-response curve generally carried out with a range of concentrations from ≧100 microg/mL to ≦0.01 microg/mL.

[2] = tested on: PC3: prostate cancer; test: In vitro anti-proliferative activity, BrdU incorporation, PC3; format: cell-based; conditions: PC3 cells, 50% inhibition of proliferation, BrdU incorporation into DNA
Description: as §1

[3] = tested on: HUVEC: non-transformed early passage human umbilical vein endothelial cells; test: In vitro anti-proliferative activity, BrdU incorporation, HUVEC; format: cell-based; conditions: 50% inhibition of proliferation, BrdU incorporation into DNA
Description: as §1

[4] = tested on: chick embryo chorioallantoic membrane; test: Chick embryo chorioallantoic membrane (CAM) assay; format: in vivo; conditions: 100 μg methylcellulose disk, after 48 hours
Text: Anti-proliferative activity can be evaluated in situ by testing the ability of an improved estradiol derivative to inhibit the proliferation of new blood vessel cells (angiogenesis). A suitable assay is the chick embryo chorioallantoic membrane (CAM) assay described by Crum et al. Science 230:1375 (1985). See also, U.S. Pat. No. 5,001,116, hereby incorporated by reference, which describes the CAM assay. Briefly, fertilized chick embryos are removed from their shell on day 3 or 4, and a methylcellulose disc containing the drug is implanted on the chorioallantoic membrane. The embryos are examined 48 hours later and, if a clear avascular zone appears around the methylcellulose disc, the diameter of that zone is measured.

[5] = tested on: U87-MG: glioblastoma; test: In vitro anti-proliferative activity, BrdU incorporation, U87-MG; format: cell-based; conditions: U87-MG cells, 50% inhibition of proliferation, BrdU incorporation into DNA
Description: as §1

Row | Structure (SMILES) | IC50 ([1]; Homo sapiens) [nM] | IC50 ([2]; Homo sapiens, PC-3) [nM] | IC50 ([3]; Homo sapiens) [nM] | inhibition of cell mitosis and growth of new blood vessels (CAM) [4] | IC50 [1] [nM] | IC50 [5] [nM] | IC50 [2] [nM] | IC50 [3] [nM] | IC50 ([5]; Homo sapiens, U-87 MG) [nM]
1 | COc1cc2c(cc1O)CC[C@@H]1[C@@H]2CC[C@]2(C)[C@@H](O)CC[C@@H]12 [Compound 1, 2-methoxyestradiol, reference compound] | 690 ± 140 | 1080 ± 500 | 680 ± 150 | inhibit cell mitosis and the growth of new blood vessels | – | – | – | – | –
2 | COc1cc2c(cc1NC=O)CC[C@@H]1[C@@H]2CC[C@]2(C)C(=O)CC[C@@H]12 [Compound 43A, 3-formamide-2-methoxyestra-1,3,5(10)-triene-17-one] | – | – | – | – | 1220 ± 600 | 940 ± 90 | 610 ± 270 | 530 ± 220 | –
3 | COc1cc2c(cc1N)CC[C@@H]1[C@@H]2CC[C@]2(C)C(C)CC[C@@H]12 (stereo partly drawn) [Compound 133, 3-amino-17-methyl-2-methoxyestra-1,3,5(10)-triene] | 7310 ± 580 | 7160 ± 1420 | 2650 ± 770 | – | – | – | – | – | 14870 ± 10
4 | C=C1CC[C@H]2[C@@H]3CCc4cc(OS(N)(=O)=O)c(OC)cc4[C@H]3CC[C@]12C [Compound 70, 17-methylene-3-sulfamate-2-methoxyestra-1,3,5(10)-triene] | – | – | – | – | 560 ± 20 | 700 ± 60 | 910 ± 320 | 580 ± 30 | –
5 | CCOc1cc2c(cc1OS(N)(=O)=O)CC[C@@H]1[C@@H]2CC[C@]2(C)C(C)CC[C@@H]12 (stereo partly drawn) [Compound 119, 3-sulfamate-17-methyl-2-ethoxyestra-1,3,5(10)-triene] | – | – | – | – | 1550 ± 390 | 6410 | 830 | 910 ± 90 | –
6 | CCOc1cc2c(cc1NC=O)CC[C@@H]1[C@@H]2CC[C@]2(C)C(=O)CC[C@@H]12 [Compound 44A, 3-Formamide-2-ethoxyestra-1,3-5(10)-trien-17-one] | – | – | – | – | 24900 ± 5630 | 21100 | 27700 ± 620 | 13200 ± 2200 | –
